# Measured values: US8999295B2, “Technique for drug and gene delivery to the cell cytosol” (Brigham Young University, priority 2009, dated 2015)
# Tests used:
# [1] = Volume expansion ratio on liquid-to-vapor transformation; type: physicochemical; details: at body temperature
# [2] = cited from earlier work
# [3] = at body temperature; cited from earlier work
expansion ratio (liquid to vapor volume) [1],SMILES,solubility in water [2],vapor pressure [3] [atm]
approximately 103,"FC(F)(F)C(F)(F)C(F)(F)C(F)(F)C(F)(F)F [PFC5, perfluoropentane]",–,–
–,O=O [oxygen],1.32 mol/m^3,–
~259,FC(F)(F)C(F)(F)C(F)(F)C(F)(F)C(F)(F)C(F)(F)F [perfluorohexane],2.7×10^−4 mol/m^3,0.48
–,FC(F)(F)C(F)(F)C(F)(F)F [perfluoropropane],0.19 mol/m^3,–
